Results from patent publication US20030055084A1, “Pharmaceutical compounds and methods of use thereof” (Millennium Pharmaceutical, Inc., priority 2001, published 2003).

tested on: Leukotriene B4 production in ionophore-stimulated human whole blood; test: Inhibition of leukotriene B4 production in ionophore-stimulated human whole blood; type: cell-based; conditions: calcium ionophore stimulated, LTB4 by EIA, read-out: HWB IC50
Protocol: Inhibition of Leukotriene B4 Production in lonophore-Stimulated Human Whole Blood
Human blood was drawn into heparinized blood collection tubes, and aliquoted in 1 ml portions into 1.5 ml microfuge tubes. Test compound ([…]) of varying concentrations, dissolved in DMSO, was added to the blood sample and incubated for 15 minutes at 37° C. Calcium ionophore ([…]) in DMSO was added to a final concentration of […], and the samples were incubated for 30 minutes at 37° C. Samples are then centrifuged at 1100×g (2500 rpm, H1000B rotor, in a Sorvall centrifuge) for 10 minutes at 4° C. Supernatant ([…]) was transferred into 1 1.5 ml microfuge tube, […] of cold methanol added, and proteins precipitated on ice for 30 minutes. The samples were centrifuged at 110×g for 10 minutes at 4° C., and the supernatant assayed for LTB4 using a commercially available EIA kit (Cayman Chemical) according to manufacturer's specifications. The following IC50 results (nM) were obtained for the specified compounds having the structures as indicated for the corresponding compound number.

IC50	Structure (SMILES)
0.197 µM	C[C@@H](C#C[C@@H]1CC[C@@H](c2cc3ccccc3s2)O1)N(O)C(N)=O [Compound 3]
0.388 µM	NC(=O)N(O)CCC#C[C@H]1CCC(c2cc3cc(F)ccc3o2)O1 (stereo partly drawn) [Compound 6B]
0.112 µM	NC(=O)N(O)CCC#C[C@@H]1CC[C@@H](c2cc3ccccc3s2)O1 [Compound 2A]
0.298 µM	NC(=O)N(O)CCC#C[C@@H]1CC[C@H](c2cc3cc(C(F)(F)F)ccc3o2)O1 [Compound 4B]
0.101 µM	NC(=O)N(O)CCC#C[C@@H]1CCC(c2cc3cc(F)ccc3o2)O1 (stereo partly drawn) [Compound 6A]
0.878 µM	NC(=O)N(O)CCC#C[C@H]1CC[C@@H](c2cc3ccccc3s2)O1 [Compound 2B]
